Experimental data published in the NIST ThermoML archive (doi:10.1021/je060271a).

Conditions: 323.15 K, Liquid, Vibrating tube method

CCCCCCC(=O)OCC(COC(=O)CCCCCC)(COC(=O)CCCCCC)COC(=O)CCCCCC [pentaerythritol tetraheptanoate]
Conditions | mass density [kg/m3]
16867 kPa | 966.6
16877 kPa | 966.8
16890 kPa | 966.9
16900 kPa | 966.7
16913 kPa | 966.7
17014 kPa | 966.8
17028 kPa | 966.8
17038 kPa | 966.9
17049 kPa | 967
17062 kPa | 966.9
17072 kPa | 966.9
17084 kPa | 966.9
17095 kPa | 966.8
17108 kPa | 966.8
17119 kPa | 967
17131 kPa | 966.9
17142 kPa | 967
17153 kPa | 966.9
17164 kPa | 967
17177 kPa | 967
17188 kPa | 966.9
17201 kPa | 966.9
17212 kPa | 967
17247 kPa | 967
17258 kPa | 966.9
17269 kPa | 967
17282 kPa | 967
17293 kPa | 967
17307 kPa | 967.1
17318 kPa | 967
17389 kPa | 967
17412 kPa | 967.1
17426 kPa | 967
17437 kPa | 967.2
17451 kPa | 967.1
17462 kPa | 967.1
17474 kPa | 967.2
17485 kPa | 967.2
17499 kPa | 967.2
17511 kPa | 967
17536 kPa | 967.2
17548 kPa | 967.2
17559 kPa | 967.3
17573 kPa | 967.2
17584 kPa | 967.3
17596 kPa | 967.2
17610 kPa | 967.2
17621 kPa | 967.1
17633 kPa | 967.2
17647 kPa | 967.2
17746 kPa | 967.4
17760 kPa | 967.3
17772 kPa | 967.3
17810 kPa | 967.3
17822 kPa | 967.2
17836 kPa | 967.4
17848 kPa | 967.3
17861 kPa | 967.3
17873 kPa | 967.3
17899 kPa | 967.4
17962 kPa | 967.4
17976 kPa | 967.5
17989 kPa | 967.4
18016 kPa | 967.4
18029 kPa | 967.5
18041 kPa | 967.5
18053 kPa | 967.5
18066 kPa | 967.5
18080 kPa | 967.5
18092 kPa | 967.4
18107 kPa | 967.5
18119 kPa | 967.5
18132 kPa | 967.6
18146 kPa | 967.5
18159 kPa | 967.5
18186 kPa | 967.6
18524 kPa | 967.9
18537 kPa | 967.8
18550 kPa | 967.9
18565 kPa | 967.6
18579 kPa | 967.8
18594 kPa | 967.7
18608 kPa | 967.8
18621 kPa | 967.8
18634 kPa | 967.9
18650 kPa | 967.8
18663 kPa | 967.8
18676 kPa | 967.8
18692 kPa | 967.9
18704 kPa | 967.9
18721 kPa | 967.9
18734 kPa | 967.9
18747 kPa | 967.9
18761 kPa | 967.9
18777 kPa | 967.8
18790 kPa | 968
18803 kPa | 968
18820 kPa | 968
18833 kPa | 967.9
18848 kPa | 968
18862 kPa | 968
18876 kPa | 968
18889 kPa | 968.1
18906 kPa | 968
18950 kPa | 968
18977 kPa | 968.1
18993 kPa | 967.9
19007 kPa | 968.1
19021 kPa | 968.1
19037 kPa | 968.1
19051 kPa | 968.2
19064 kPa | 968.1
19081 kPa | 968
19096 kPa | 968.1
19124 kPa | 968
19140 kPa | 968.1
19154 kPa | 968.1
19168 kPa | 968.1
19182 kPa | 968.1
19199 kPa | 968.2
19213 kPa | 968.2
19228 kPa | 968.1
19245 kPa | 968.2
19259 kPa | 968.2
19273 kPa | 968.3
19289 kPa | 968.3
19303 kPa | 968.3
19320 kPa | 968.2
19334 kPa | 968.3
19351 kPa | 968.3
19366 kPa | 968.3
19380 kPa | 968.2
19394 kPa | 968.4
19411 kPa | 968.4
19425 kPa | 968.4
19440 kPa | 968.3
19457 kPa | 968.3
19472 kPa | 968.4
19489 kPa | 968.3
19503 kPa | 968.3
19564 kPa | 968.3
19579 kPa | 968.3
19597 kPa | 968.4
19611 kPa | 968.4
19629 kPa | 968.5
19644 kPa | 968.5
19659 kPa | 968.5
19674 kPa | 968.5
19688 kPa | 968.5
19706 kPa | 968.5
19721 kPa | 968.5
19738 kPa | 968.5
19754 kPa | 968.6
19769 kPa | 968.5
19787 kPa | 968.5
19802 kPa | 968.5
19816 kPa | 968.5
19834 kPa | 968.5
19850 kPa | 968.5
19864 kPa | 968.6
19882 kPa | 968.7
19898 kPa | 968.5
19913 kPa | 968.7
19928 kPa | 968.6
19947 kPa | 968.6
19977 kPa | 968.5
19995 kPa | 968.5
20026 kPa | 968.6
20044 kPa | 968.7
20059 kPa | 968.7
20075 kPa | 968.6
20094 kPa | 968.8
20109 kPa | 968.7
20125 kPa | 968.8
20141 kPa | 968.8
20159 kPa | 968.8
20175 kPa | 968.9
20193 kPa | 968.8
20209 kPa | 968.9
20224 kPa | 968.8
20240 kPa | 968.9
20258 kPa | 969
20274 kPa | 968.8
20293 kPa | 968.9
20309 kPa | 968.8
20325 kPa | 968.8
20344 kPa | 968.9
20359 kPa | 968.9
20375 kPa | 968.9
20390 kPa | 968.9
20410 kPa | 968.9
20426 kPa | 969
20444 kPa | 969
20460 kPa | 969
20476 kPa | 968.9
20496 kPa | 969
20512 kPa | 969
20528 kPa | 969
20544 kPa | 969
20564 kPa | 969.1
20580 kPa | 969
20596 kPa | 969
20631 kPa | 969.1
20648 kPa | 969
20667 kPa | 969.1
20684 kPa | 969.2
20700 kPa | 969.1
20720 kPa | 969.2
20737 kPa | 969.1
20755 kPa | 969.2
20771 kPa | 969.1
20791 kPa | 969.2
20808 kPa | 969.1
20824 kPa | 969.2
20841 kPa | 969.2
20861 kPa | 969.3
20877 kPa | 969.3
20894 kPa | 969.3
20914 kPa | 969.2
20931 kPa | 969.3
20985 kPa | 969.2
21022 kPa | 969.1
21039 kPa | 969.4
